From US20250049806A1, “PHARMACEUTICAL COMPOSITION FOR PROVIDING TREATMENT FOR OR PREVENTING ALPORT SYNDROME” (UBE Corporation, priority 2021, published 2025)

test: Transcellular transport test using Caco2 cell; assay type: in vitro ADME; settings: human, Caco-2, apical-to-basolateral (A-to-B), pH=7.4, 10 µM compound
In short: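 Caco2 monolayers grown 20–22 days were dosed apically in HBSS/20 mM HEPES pH 7.4 (10 mM DMSO stock diluted 1000-fold, 0.1% DMSO) for 90 min at 37 °C. Basolateral compound was measured by LC-MS/MS and donor concentration by UV-HPLC. Papp (A-to-B) was derived from the slope and graded A–D.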

Row | SMILES | Papp A→B at 90 min, 10 µM
1 | O=C(O)C[C@H](NC(=O)CNC(=O)c1cc(NC2=NCC(F)CN2)c2cn[nH]c2c1)c1ccc(C(F)(F)F)cc1 (stereo partly drawn) [47-(b), (3S)-3-(2-(4-((5-fluoro-1,4,5,6-tetrahydropyrimidin-2-yl)amino)-1H-indazole-6-carboxamido)acetamido)-3-(4-(trifluoromethyl)phenyl)propanoic acid] | > 1 ×10⁻⁶ cm/s
2 | O=C(O)C[C@H](NC(=O)CNC(=O)c1cc(NC2=NCC(F)CN2)c2cn[nH]c2c1)c1cccc(C2CC2)c1 (stereo partly drawn) [39-(b), (3S)-3-(3-cyclopropylphenyl)-3-(2-(4-((5-fluoro-1,4,5,6-tetrahydropyrimidin-2-yl)amino)-1H-indazole-6-carboxamido)acetamido)propanoic acid] | > 1 ×10⁻⁶ cm/s
3 | O=C(O)C[C@H](NC(=O)CNC(=O)c1cc(NC2=NCC(F)CN2)c2cn[nH]c2c1)c1cc(-n2cccn2)cc(C(F)(F)F)c1 (stereo partly drawn) [8-(b), (3S)-3-(3-(1H-pyrazol-1-yl)-5-(trifluoromethyl)phenyl)-3-(2-(4-((5-fluoro-1,4,5,6-tetrahydropyrimidin-2-yl)amino)-1H-indazole-6-carboxamido)acetamido)propanoic acid] | 0.5 to 1 ×10⁻⁶ cm/s
4 | O=C(O)C[C@H](NC(=O)CNC(=O)c1cc(NC2=NCC(F)CN2)c2cn[nH]c2c1)c1cccc(C(F)F)c1 (stereo partly drawn) [38-(b), (3S)-3-(3-(difluoromethyl)phenyl)-3-(2-(4-((5-fluoro-1,4,5,6-tetrahydropyrimidin-2-yl)amino)-1H-indazole-6-carboxamido)acetamido)propanoic acid] | > 1 ×10⁻⁶ cm/s
5 | O=C(O)C[C@H](NC(=O)CNC(=O)c1cc(NC2=NCC(F)CN2)c2cn[nH]c2c1)c1cc(Br)cc(C(F)(F)F)c1 (stereo partly drawn) [2-(b), (3S)-3-(3-bromo-5-(trifluoromethyl)phenyl)-3-(2-(4-((5-fluoro-1,4,5,6-tetrahydropyrimidin-2-yl)amino)-1H-indazole-6-carboxamido)acetamido)propanoic acid] | 0.5 to 1 ×10⁻⁶ cm/s
6 | O=C(O)C[C@H](NC(=O)CNC(=O)c1cc(NC2=NCC(F)CN2)c2cn[nH]c2c1)c1cccc(-n2cccn2)c1 (stereo partly drawn) [43-(b), (3S)-3-(3-(1H-pyrazol-1-yl)phenyl)-3-(2-(4-((5-fluoro-1,4,5,6-tetrahydropyrimidin-2-yl)amino)-1H-indazole-6-carboxamido)acetamido)propanoic acid] | > 1 ×10⁻⁶ cm/s
7 | O=C(O)C[C@H](NC(=O)CNC(=O)c1cc(NC2=NCC(F)CN2)c2cn[nH]c2c1)c1cc(Br)cc(Br)c1 (stereo partly drawn) [19-(b), (3S)-3-(3,5-dibromophenyl)-3-(2-(4-((5-fluoro-1,4,5,6-tetrahydropyrimidin-2-yl)amino)-1H-indazole-6-carboxamido)acetamido)propanoic acid] | > 1 ×10⁻⁶ cm/s
